Laboratory results as given in BindingDB's records for patent US10294246 (Merck Patent, 2019).

molecular target: T1, Proteasome subunit beta type-8 (Homo sapiens, UniProt P28062); assay: Determination of LMP7 Activity
T1 sequence (P28062 whole entry): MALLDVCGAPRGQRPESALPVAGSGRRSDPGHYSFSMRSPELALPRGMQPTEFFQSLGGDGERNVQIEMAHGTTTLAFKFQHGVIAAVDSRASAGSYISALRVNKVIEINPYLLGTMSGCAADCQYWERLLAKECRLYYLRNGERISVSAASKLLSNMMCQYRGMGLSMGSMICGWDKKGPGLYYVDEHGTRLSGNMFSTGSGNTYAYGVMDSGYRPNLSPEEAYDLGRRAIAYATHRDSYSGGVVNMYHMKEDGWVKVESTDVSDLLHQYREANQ
Experimental: Measurement of LMP7 inhibition is performed in 384 well format based on fluorescence intensity assay.Purified human immunoproteasome (0.25 nM) and serial diluted compounds in DMSO (range of concentrations from 30 μM to […]) or controls are incubated for 20 minutes at 25° C. in assay buffer containing 50 mM Tris pH 7.4, 0.03% SDS, 1 mM EDTA and 1% DMSO. The reaction is initiated by the addition of the fluorogenic peptide substrate, Suc-LLVY-AMC (Bachem 1-1395), at a concentration of 40 μM. After 60 minutes of incubation at 37° C., fluorescence intensity is measured at λex=350 nm and λem=450 nm with a fluorescence reader (Perkin Elmer Envision reader or equivalent).

SMILES | IC50 [nM]
CC(=O)Nc1cccc(CC(=O)N[C@@H](Cc2coc3ccccc23)B(O)O)c1 [US10294246, Compound No. 32] | < 50
CO[C@H](C(=O)N[C@@H](Cc1coc2ccccc12)B(O)O)c1ccccc1 [US10294246, Compound No. 33] | < 50
COc1ccc(C(F)(F)C(=O)N[C@@H](Cc2coc3ccccc23)B(O)O)cc1 [US10294246, Compound No. 51] | < 50
CCO[C@@H](C(=O)N[C@@H](Cc1coc2ccccc12)B(O)O)c1ccccc1 [US10294246, Compound No. 70] | < 50

Now from value to compound:

IC50 [nM] | SMILES
< 50 | Cc1ccc(OCCC(=O)N[C@@H](Cc2coc3ccccc23)B(O)O)cc1 [US10294246, Compound No. 7]
< 50 | CC(=O)Nc1ccc(CC(=O)N[C@@H](Cc2coc3ccccc23)B(O)O)cc1 [US10294246, Compound No. 26]
< 50 | C[C@H](C(=O)N[C@@H](Cc1coc2ccccc12)B(O)O)c1ccccc1 [US10294246, Compound No. 37]
